Experimental data taken from PubChem BioAssay (NCI).
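Method: 48-hour compound exposure of cells in 96-well plates, five concentrations, linear interpolation of endpoints. TGI marks complete inhibition of growth.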

Tests used:
Assay in all cases: inhibition of tumour cell growth, NCI panel, 48 h
SK-MEL-2 melanoma = tested on: SK-MEL-2 melanoma
NCI-H226 lung = tested on: NCI-H226 lung
CAKI-1 renal = tested on: CAKI-1 renal
LOX IMVI melanoma = tested on: LOX IMVI melanoma
U251 CNS = tested on: U251 CNS
DLD-1 colon = tested on: DLD-1 colon
MCF7 breast = tested on: MCF7 breast
M19-MEL melanoma = tested on: M19-MEL melanoma
UO-31 renal = tested on: UO-31 renal
SK-OV-3 ovarian = tested on: SK-OV-3 ovarian
OVCAR-4 ovarian = tested on: OVCAR-4 ovarian
ACHN renal = tested on: ACHN renal
XF 498 CNS = tested on: XF 498 CNS
T-47D breast = tested on: T-47D breast
NCI-H23 lung = tested on: NCI-H23 lung
SNB-75 CNS = tested on: SNB-75 CNS
HOP-18 NSCLC = tested on: HOP-18 NSCLC
SF-539 CNS = tested on: SF-539 CNS
M14 melanoma = tested on: M14 melanoma
MDA-N = tested on: MDA-N
HCT-15 colon = tested on: HCT-15 colon
SNB-19 CNS = tested on: SNB-19 CNS
HOP-62 NSCLC = tested on: HOP-62 NSCLC
UACC-257 melanoma = tested on: UACC-257 melanoma
CCRF-CEM leukemia = tested on: CCRF-CEM leukemia
BT-549 breast = tested on: BT-549 breast
MOLT-4 leukemia = tested on: MOLT-4 leukemia
SF-295 CNS = tested on: SF-295 CNS
DMS 273 small cell lung = tested on: DMS 273 small cell lung
HL-60(TB) leukemia = tested on: HL-60(TB) leukemia
PC-3 prostate = tested on: PC-3 prostate
LXFL 529 NSCLC = tested on: LXFL 529 NSCLC
DU-145 prostate = tested on: DU-145 prostate
K-562 leukemia = tested on: K-562 leukemia
IGROV1 ovarian = tested on: IGROV1 ovarian
NCI-H460 lung = tested on: NCI-H460 lung
KM20L2 colon = tested on: KM20L2 colon
HS 578T breast = tested on: HS 578T breast
HCC-2998 colon = tested on: HCC-2998 colon
MALME-3M melanoma = tested on: MALME-3M melanoma
OVCAR-8 ovarian = tested on: OVCAR-8 ovarian
EKVX NSCLC = tested on: EKVX NSCLC
SNB-78 CNS = tested on: SNB-78 CNS
HOP-92 NSCLC = tested on: HOP-92 NSCLC
SK-MEL-5 melanoma = tested on: SK-MEL-5 melanoma
HCT-116 colon = tested on: HCT-116 colon
SK-MEL-28 melanoma = tested on: SK-MEL-28 melanoma
SF-268 CNS = tested on: SF-268 CNS
RPMI-8226 leukemia = tested on: RPMI-8226 leukemia
HT29 colon = tested on: HT29 colon
A498 renal = tested on: A498 renal
KM12 colon = tested on: KM12 colon
SN12C renal = tested on: SN12C renal
DMS 114 small cell lung = tested on: DMS 114 small cell lung
A549 NSCLC = tested on: A549 NSCLC
TK-10 renal = tested on: TK-10 renal
COLO 205 colon = tested on: COLO 205 colon
786-0 renal = tested on: 786-0 renal
MDA-MB-435 = tested on: MDA-MB-435
RXF 393 renal = tested on: RXF 393 renal
OVCAR-5 ovarian = tested on: OVCAR-5 ovarian
OVCAR-3 ovarian = tested on: OVCAR-3 ovarian
MDA-MB-231 breast = tested on: MDA-MB-231 breast
SR leukemia = tested on: SR leukemia
NCI-H522 lung = tested on: NCI-H522 lung
SW-620 colon = tested on: SW-620 colon
UACC-62 melanoma = tested on: UACC-62 melanoma

`CN(C)CCSC(=Nc1ccccc1)N1C=COC=C1` was tested, and the TGI (SK-MEL-2 melanoma) was 32.1 µM, the TGI (NCI-H226 lung) was over 75.6 µM and the TGI (CAKI-1 renal) was over 100 µM. The TGI (LOX IMVI melanoma) was 31.8 µM, the TGI (U251 CNS) was over 100 µM and the TGI (DLD-1 colon) was 32.4 µM. The TGI (MCF7 breast) was 33.9 µM, the TGI (M19-MEL melanoma) was 32.5 µM and the TGI (UO-31 renal) was over 100 µM. For the same compound, the TGI (SK-OV-3 ovarian) was over 100 µM, the TGI (OVCAR-4 ovarian) was over 62 µM and the TGI (ACHN renal) was over 100 µM. For the same compound, the TGI (XF 498 CNS) was 85.3 µM, the TGI (T-47D breast) was 74.4 µM and the TGI (NCI-H23 lung) was over 73.6 µM. It also gave a TGI (SNB-75 CNS) of over 100 µM, a TGI (HOP-18 NSCLC) of over 100 µM and a TGI (SF-539 CNS) of over 89 µM. The TGI (M14 melanoma) was 36.2 µM, the TGI (MDA-N) was 45.4 µM and the TGI (HCT-15 colon) was 47.4 µM. The TGI (SNB-19 CNS) was over 100 µM, the TGI (HOP-62 NSCLC) was over 100 µM and the TGI (UACC-257 melanoma) was 33.8 µM. For the same compound, the TGI (CCRF-CEM leukemia) was over 100 µM, the TGI (BT-549 breast) was over 100 µM and the TGI (MOLT-4 leukemia) was over 100 µM. The TGI (SF-295 CNS) was over 100 µM, the TGI (DMS 273 small cell lung) was 35.7 µM and the TGI (HL-60(TB) leukemia) was over 100 µM. The TGI (PC-3 prostate) was 95.5 µM, the TGI (LXFL 529 NSCLC) was 30.6 µM and the TGI (DU-145 prostate) was over 100 µM. For the same compound, the TGI (K-562 leukemia) was over 100 µM, the TGI (IGROV1 ovarian) was 33.4 µM and the TGI (NCI-H460 lung) was over 100 µM. For the same compound, the TGI (KM20L2 colon) was over 100 µM, the TGI (HS 578T breast) was over 100 µM and the TGI (HCC-2998 colon) was 50.5 µM. For the same compound, the TGI (MALME-3M melanoma) was over 81.8 µM, the TGI (OVCAR-8 ovarian) was over 63.3 µM and the TGI (EKVX NSCLC) was over 100 µM. It also gave a TGI (SNB-78 CNS) of 90.1 µM, a TGI (HOP-92 NSCLC) of 73.2 µM and a TGI (SK-MEL-5 melanoma) of 34 µM. For the same compound, the TGI (HCT-116 colon) was 45 µM, the TGI (SK-MEL-28 melanoma) was 40.4 µM and the TGI (SF-268 CNS) was 42.5 µM. For the same compound, the TGI (RPMI-8226 leukemia) was over 100 µM, the TGI (HT29 colon) was over 100 µM and the TGI (A498 renal) was over 100 µM. The TGI (KM12 colon) was over 100 µM, the TGI (SN12C renal) was 64.6 µM and the TGI (DMS 114 small cell lung) was 27.9 µM. It also gave a TGI (A549 NSCLC) of over 100 µM, a TGI (TK-10 renal) of over 100 µM and a TGI (COLO 205 colon) of over 72.2 µM. The TGI (786-0 renal) was 38.9 µM, the TGI (MDA-MB-435) was 34.8 µM and the TGI (RXF 393 renal) was 72.8 µM. For the same compound, the TGI (OVCAR-5 ovarian) was over 100 µM, the TGI (OVCAR-3 ovarian) was over 81.8 µM and the TGI (MDA-MB-231 breast) was 41.1 µM. For the same compound, the TGI (SR leukemia) was over 100 µM, the TGI (NCI-H522 lung) was 34 µM and the TGI (SW-620 colon) was 43.5 µM. For the same compound, the TGI (UACC-62 melanoma) was 30.9 µM.

Work on `C[C@]12CCC3[C@@H](C[C@H]4OC(=O)[C@@]35CCC(=O)C=C45)C1CCC2=O` (some centres undefined) yielded a TGI (SK-MEL-2 melanoma) of over 100 µM, a TGI (NCI-H226 lung) of over 100 µM and a TGI (U251 CNS) of over 100 µM. The TGI (DLD-1 colon) was over 100 µM, the TGI (M19-MEL melanoma) was over 100 µM and the TGI (UO-31 renal) was over 100 µM. It also gave a TGI (SK-OV-3 ovarian) of over 100 µM, a TGI (ACHN renal) of over 100 µM and a TGI (XF 498 CNS) of over 100 µM. It also gave a TGI (NCI-H23 lung) of over 100 µM, a TGI (HOP-18 NSCLC) of over 100 µM and a TGI (SF-539 CNS) of over 100 µM. The TGI (M14 melanoma) was over 100 µM, the TGI (HCT-15 colon) was over 100 µM and the TGI (SNB-19 CNS) was over 100 µM. It also gave a TGI (UACC-257 melanoma) of over 100 µM, a TGI (CCRF-CEM leukemia) of over 100 µM and a TGI (MOLT-4 leukemia) of over 100 µM. For the same compound, the TGI (SF-295 CNS) was over 100 µM, the TGI (HL-60(TB) leukemia) was over 100 µM and the TGI (LXFL 529 NSCLC) was over 100 µM. For the same compound, the TGI (K-562 leukemia) was over 100 µM, the TGI (IGROV1 ovarian) was over 100 µM and the TGI (NCI-H460 lung) was over 100 µM. The TGI (HCC-2998 colon) was over 100 µM, the TGI (MALME-3M melanoma) was over 100 µM and the TGI (OVCAR-8 ovarian) was over 100 µM. The TGI (EKVX NSCLC) was over 100 µM, the TGI (HOP-92 NSCLC) was over 100 µM and the TGI (SK-MEL-5 melanoma) was over 100 µM. For the same compound, the TGI (SK-MEL-28 melanoma) was over 100 µM, the TGI (SF-268 CNS) was over 100 µM and the TGI (RPMI-8226 leukemia) was over 100 µM. It also gave a TGI (HT29 colon) of over 100 µM, a TGI (KM12 colon) of over 100 µM and a TGI (SN12C renal) of over 100 µM. The TGI (DMS 114 small cell lung) was over 100 µM, the TGI (A549 NSCLC) was over 100 µM and the TGI (TK-10 renal) was over 100 µM. The TGI (COLO 205 colon) was over 100 µM, the TGI (786-0 renal) was over 100 µM and the TGI (RXF 393 renal) was over 100 µM. It also gave a TGI (OVCAR-5 ovarian) of over 100 µM, a TGI (OVCAR-3 ovarian) of over 100 µM and a TGI (SR leukemia) of over 100 µM. The TGI (NCI-H522 lung) was over 100 µM and the TGI (SW-620 colon) was over 100 µM.

Work on `CC(C)=CCC/C(C)=C/CC/C(C)=C/CC/C=C(\C)CC/C=C(\C)CCC1SC1(C)C` (centres undefined) yielded a TGI (SK-MEL-2 melanoma) of over 100 µM, a TGI (NCI-H226 lung) of over 100 µM and a TGI (CAKI-1 renal) of over 100 µM. For the same compound, the TGI (LOX IMVI melanoma) was over 100 µM, the TGI (U251 CNS) was over 100 µM and the TGI (DLD-1 colon) was over 100 µM. The TGI (M19-MEL melanoma) was over 100 µM, the TGI (UO-31 renal) was over 100 µM and the TGI (SK-OV-3 ovarian) was over 100 µM. It also gave a TGI (OVCAR-4 ovarian) of over 100 µM, a TGI (ACHN renal) of over 100 µM and a TGI (NCI-H23 lung) of over 100 µM. For the same compound, the TGI (SNB-75 CNS) was over 100 µM, the TGI (HOP-18 NSCLC) was over 100 µM and the TGI (SF-539 CNS) was over 100 µM. It also gave a TGI (M14 melanoma) of over 100 µM, a TGI (HCT-15 colon) of over 100 µM and a TGI (SNB-19 CNS) of over 100 µM. For the same compound, the TGI (HOP-62 NSCLC) was over 100 µM, the TGI (UACC-257 melanoma) was over 100 µM and the TGI (CCRF-CEM leukemia) was over 100 µM. The TGI (MOLT-4 leukemia) was over 100 µM, the TGI (SF-295 CNS) was over 100 µM and the TGI (DMS 273 small cell lung) was over 100 µM. For the same compound, the TGI (HL-60(TB) leukemia) was over 100 µM, the TGI (LXFL 529 NSCLC) was over 100 µM and the TGI (K-562 leukemia) was over 100 µM. For the same compound, the TGI (IGROV1 ovarian) was over 100 µM, the TGI (NCI-H460 lung) was over 100 µM and the TGI (KM20L2 colon) was over 100 µM. For the same compound, the TGI (HCC-2998 colon) was over 100 µM, the TGI (MALME-3M melanoma) was over 100 µM and the TGI (OVCAR-8 ovarian) was over 100 µM. It also gave a TGI (EKVX NSCLC) of over 100 µM, a TGI (SNB-78 CNS) of over 100 µM and a TGI (HOP-92 NSCLC) of over 100 µM. For the same compound, the TGI (SK-MEL-5 melanoma) was over 100 µM, the TGI (HCT-116 colon) was over 100 µM and the TGI (SK-MEL-28 melanoma) was over 100 µM. For the same compound, the TGI (SF-268 CNS) was over 100 µM, the TGI (RPMI-8226 leukemia) was over 100 µM and the TGI (HT29 colon) was over 100 µM. The TGI (A498 renal) was over 100 µM, the TGI (KM12 colon) was over 100 µM and the TGI (SN12C renal) was over 100 µM. The TGI (DMS 114 small cell lung) was over 100 µM, the TGI (A549 NSCLC) was over 100 µM and the TGI (TK-10 renal) was over 100 µM. The TGI (COLO 205 colon) was over 100 µM, the TGI (786-0 renal) was over 100 µM and the TGI (RXF 393 renal) was over 100 µM. For the same compound, the TGI (OVCAR-5 ovarian) was over 100 µM, the TGI (NCI-H522 lung) was over 100 µM and the TGI (SW-620 colon) was over 100 µM. The TGI (UACC-62 melanoma) was over 100 µM.
